What all share (type): cell-based
For assay [1], the system named is p100 gene classifier (noncanonical NF-κB pathway). Briefly: nCounter gene expression of the p100 classifier in DLBCL cell lines after drug treatment. How it is done: (§1) FIG. 5A illustrates that rituximab increases the apoptotic effect of doxorubicin when it is associated with suppression of p105 and induction of p100 classifier gene expression. Boxplot of p100 and p105 gene list illustrating the changes in gene expression in cells treated with doxorubicin ([…]) or rituximab ([…]). Cells were treated for 24 hours and the percent of live cells was measured using an ImageXpress 5000A Automated Acquisition and Analysis System (Molecular Devices), quantitating for Yo-pro-1 or PI-negative cells.
(§2) Given the capacity of the p105 classifier to predict a better response to RCHOP, the extent to which both classifiers were targeted by rituximab was investigated. In this investigation, the pathway dysregulation in a series of DLBCL cell lines and their changes in gene expression produced by DNA damaging agent (doxorubicin) and rituximab was measured. Based on their known baseline pattern of NF-κB activation, cell lines with enhanced (OCI-LY3, OCI-LY10) and suppressed (OCI-LY19 and OCI-LY2) NF-κB activation were selected for further testing (FIG. 5A).
(§3) nCounter Analysis System technology was developed by NanoString Technologies. In brief, nCounter™ assay was performed using 100 ng of total RNA or 2 μL of tissue lysate per replicate. The nCounter CodeSet for these studies contained probe pairs for 47 test and 3 control genes. All 47 genes and controls (n=3) were assayed simultaneously in multiplexed reactions. […] Subsequently, supervised complete linkage agglomerative hierarchical clustering analysis was performed.

Assay [2] deals with p105 gene classifier (canonical NF-κB pathway). Briefly: nCounter gene expression of the p105 classifier in DLBCL cell lines after drug treatment. The procedure: as §1, §2, §3
Assay [3] relates to DLBCL cell lines OCI-LY3, OCI-LY10, OCI-LY19 and OCI-LY2. Briefly: Apoptosis studies (Yo-pro-1 / PI negative live cells, ImageXpress). The note with it: rituximab alone, titrating doses, 24 hours; all four cell lines. How it is done: To assess the consequence of rituximab's functional effects, the degree of apoptosis produced after treating all four cell lines with titrating doses of doxorubicin and rituximab was measured.
For apoptosis studies, 10^4 cells were treated with titrating doses of doxorubicin (titrating doses: […], Sigma) or rituximab (titrating doses: 1.5, 2.5, 5, 10 and 20 mg/mL, Biogen Idec Inc). Twenty four hours later cells were stained with Yo-pro-1 iodide and propidium Iodide (PI, both from Invitrogen). Live cells were measured using an ImageXpress 5000A Automated Acquisition and Analysis System (Molecular Devices), quantitating for Yo-pro-1 iodide and PI negative cells.

[4] abbreviates: rituximab with doxorubicin, NF-κB activated cell lines (OCI-LY3, OCI-LY10).
[5] abbreviates: doxorubicin alone, OCI-LY3, OCI-LY10 cells.

For the compound rituximab, in assay [1] (OCI-LY2 and OCI-LY19 cells), the “change in expression of p100 classifier” value is given as “minimally changed”. Besides, the “effect on doxorubicin's induction of p100 gene classifier” value in assay [1] (setting [4]) is “enhanced the induction”. Besides, the “change in expression of p105 classifier” value in assay [2] (OCI-LY2 and OCI-LY19 cells) is listed as “minimally changed”. The “effect on doxorubicin's induction of p105 gene classifier” value in assay [2] (setting [4]) is “suppressed doxorubicin's induction”. The degree of apoptosis entry in assay [3] is recorded as “did not induce significant apoptosis beyond background levels”.
For `COc1cccc2c1C(=O)c1c(O)c3c(c(O)c1C2=O)C[C@@](O)(C(=O)CO)C[C@@H]3O[C@H]1C[C@H](N)[C@H](O)[C@H](C)O1` [doxorubicin], the “gene expression of p100 target genes” value in assay [1] (setting [5]) was “moderately induced”. Also, in assay [2] (setting [5]), the “gene expression of p105 target genes” value is reported as “moderately induced”.

These data come from patent US10052381B2, “Classifiers of NF-κB pathway activation, devices, and methods of use thereof” (Emory University, priority 2012, dated 2018).
